Tests used:
[1] = refractive index (other wavelength) (dimensionless); conditions: 101.32 kPa, Liquid, Wavelength=632.8 nm, Standard Abbe refractometry
[2] = refractive index (other wavelength) (dimensionless); xn = mol fraction of the nth substance listed; conditions: 293.6 K, 101.32 kPa, Liquid, Wavelength=632.8 nm

N#Cc1ccccc1 [benzonitrile]
[1]
Conditions | refractive index
283.93 K | 1.5294
285.77 K | 1.5285
287.73 K | 1.5276
289.74 K | 1.5266
291.66 K | 1.5256
293.65 K | 1.5247

N#Cc1ccccc1 [benzonitrile] + CCCCCCCCCCCC
[2]
Conditions | refractive index
x1 = 0.0994 | 1.4247
x1 = 0.195 | 1.4302
x1 = 0.2945 | 1.436
x1 = 0.3954 | 1.4434
x1 = 0.4923 | 1.4507
x1 = 0.5859 | 1.4608
x1 = 0.6782 | 1.4711
x1 = 0.768 | 1.4832
x1 = 0.8871 | 1.5022

CCCCCCCCCCCC [dodecane]
[1]
Conditions | refractive index
282.19 K | 1.4249
284.24 K | 1.424
286.06 K | 1.4233
288.08 K | 1.4225
289.91 K | 1.4217
291.91 K | 1.4207
293.94 K | 1.4199

Source: the NIST ThermoML archive (doi:10.1016/j.jct.2007.09.010)
